Measurements taken from patent US20210196737A1, “USE OF TREZASTILBENOSIDE IN MANUFACTURE OF PRODUCT FOR TREATING AND/OR PREVENTING NON-ALCOHOLIC FATTY LIVER DISEASE” (KPC PHARMACEUTICALS, INC., priority 2019, published 2021).

Experiments:
[1] = test system: non-alcoholic fatty liver disease (NAFLD) model mice; assay: TC and TG content in liver tissue of NAFLD model mice; format: in vivo, C57BL/6 mice
Description: (§1) After 1 week of adaptive feeding, 44 C57 mice were divided into a control group (12 mice) and a model group (32 mice) according to the random number method. The normal control group was given ordinary diet, and the model group was given high-sugar and high-fat diet. After feeding for 8 weeks, randomly select 2 animals in each of the control group and the model group. After pathological examination confirmed that the modeling was successful, the model animals were divided into groups.
(§2) The model animals were divided according to random number method into 3 groups of 10 mice each, namely model control group (equal volume of sodium chloride injection solution), Trezastilbenoside high dose group (20 mg/kg) and Trezastilbenoside low dose group (10 mg/kg). The mice in each administration group were administered intragastrically with the corresponding drug, once a day continuously for 4 weeks, while being fed with the high-sugar and high-fat feed continuously. The mice in the normal control group (equal volume of sodium chloride injection solution) were feed with the ordinary feed.
About 100 mg of liver tissue weighed, was put into 900 μL absolute ethanol to make a 10% tissue homogenate under an ice bath. Then the supernatant was separated out through a centrifugation separation at 3000 r/min for 15 min, and collected into a 1.5 mL centrifuge tube for the measurement of TC and TG content in the liver tissue.

[2] = safety research mentioned in background; cited from earlier work
[3] = test system: non-alcoholic fatty liver disease (NAFLD) model mice; assay: Levels of serum TC, TG, HDL, LDL, AST and ALT in NAFLD model mice; format: in vivo, C57BL/6 mice; conditions: x ± s, n=10
Description: as §1, §2
About 1 mL of blood, taken via mouse eyeballs, was placed into a 1.5 mL centrifuge tube, and then centrifuged at 3000 r/min for 10 min to obtain the supernatant. The levels of TC, TG, HDL, LDL, AST and ALT in the serum were measured with a microplate reader strictly under the operating instructions of the assay kit.

[4] = test system: non-alcoholic fatty liver disease (NAFLD) model mice; assay: Gross observation and HE staining of liver of NAFLD model mice; format: in vivo, C57BL/6 mice
Description: as §1, §2
The fresh liver tissue was immersed and fixed in 4% formaldehyde solution overnight for 24 h, dehydrated through 75%-95%-100% ethanol gradient, embedded in paraffin, sectioned into 4 μm, and conventionally stained with hematoxylin-eosin, to observe the pathological changes of the liver tissue under an optical microscope (HE, 200×).

[5] = safety research mentioned in background; cited from earlier work; remark: listed apart in the source
[6] = test system: non-alcoholic fatty liver disease (NAFLD) model mice; assay: Body weight, wet liver weight and liver index in high-sugar high-fat diet NAFLD model mice; format: in vivo, C57BL/6 mice; conditions: for Weight: high-sugar high-fat feed; for Weight / Wet liver weight: mean ± s, n=10
Description: as §1, §2
After the last administration, the mice were fasted but had access to water for 12 h, and then sacrificed after blood was taken. The body mass and liver mass of each mouse were weighed to calculate the liver index by the following formula.
liver index=(liver wet mass/body mass)×100% (wet liver mass/body mass).

[7] = high dose 20 mg/kg intragastric 4 weeks
[8] = low dose 10 mg/kg intragastric 4 weeks
[9] = HE, 200x, Trezastilbenoside group
[10] = high dose 20 mg/kg intragastric once a day for 4 weeks
[11] = low dose 10 mg/kg intragastric once a day for 4 weeks

Compound: OC[C@H]1O[C@@H](Oc2cc(/C=C/c3cc(O)cc(O)c3)ccc2O)[C@H](O)[C@@H](O)[C@@H]1O [Trezastilbenoside]
- TC [1, 7]: 4.23 ± 0.87 mg/g
- TG [1, 7]: 1.96 ± 0.99 mg/g
- TC [1, 8]: 6.53 ± 0.59 mg/g
- TG [1, 8]: 2.12 ± 0.58 mg/g
- Chromosome aberrations or mutagenesis in the genetic test [2]: no chromosome aberrations or mutagenesis were found
- ALT (U/L) [3, 7]: 78.30 ± 11.53 U/L
- AST (U/L) [3, 7]: 118.92 ± 10.75 U/L
- HDL [3, 7]: 0.45 ± 0.16 mmol/L
- LDL [3, 7]: 0.41 ± 0.30 mmol/L
- TC [3, 7]: 3.43 ± 0.17 mmol/L
- TG [3, 7]: 0.99 ± 0.11 mmol/L
- ALT (U/L) [3, 8]: 122.45 ± 27.37 U/L
- AST (U/L) [3, 8]: 147.73 ± 52.98 U/L
- HDL [3, 8]: 0.27 ± 0.67 mmol/L
- LDL [3, 8]: 0.47 ± 0.13 mmol/L
- TC [3, 8]: 5.53 ± 0.52 mmol/L
- TG [3, 8]: 2.67 ± 0.19 mmol/L
- HE observation of mouse liver: fat droplets and pathological morphology, compared with the model group [4, 9]: smaller and fewer, the pathological morphology of liver tissue was significantly improved
- HE observation of mouse liver: infiltration of inflammatory cells [4, 9]: the infiltration of inflammatory cells was not obvious
- Gross observation of mouse liver: colour, texture and shape ([4]; low and high dose groups (10 and 20 mg/kg)): between the normal control group and the model group, and the texture and shape tended to be normal
- Toxic side reactions and death in acute toxicity tests [5]: no toxic side reactions and death occurred
- Obesity induced by high sugar and high fat, compared with the model group ([6]; Trezastilbenoside administration group, 4 weeks intragastric): has a tendency to reduce the obesity induced by high sugar and high fat in mice
- Weight [6, 10]: 33.8 ± 0.74 g
- Liver index (%) ([6]; high dose 20 mg/kg intragastric once a day for 4 weeks, liver wet mass/body mass x 100%): 0.51 ± 0.05 %
- Wet liver weight [6, 10]: 1.72 ± 2.7 g
- Weight [6, 11]: 35.0 ± 0.62 g
- Wet liver weight [6, 11]: 1.84 ± 3.0 g
